Several values for one entry are separate records, joined by “and”; a condition that tells them apart may be missing. Identical values can stand only once.
Conditions: horizontal capillary tube

O [water]
Conditions | surface tension liquid-gas
249.9 K, Metastable liquid | 78.88 mN/m and 78.87 mN/m
249.91 K, Metastable liquid | 78.91 mN/m
250.79 K, Metastable liquid | 78.85 mN/m
250.8 K, Metastable liquid | 78.72 mN/m
250.81 K, Metastable liquid | 78.72 mN/m
250.82 K, Metastable liquid | 78.72 mN/m and 78.77 mN/m and 78.69 mN/m
251.37 K, Metastable liquid | 78.69 mN/m and 78.66 mN/m
251.39 K, Metastable liquid | 78.68 mN/m
251.91 K, Metastable liquid | 78.65 mN/m
251.92 K, Metastable liquid | 78.65 mN/m
252.81 K, Metastable liquid | 78.39 mN/m
252.82 K, Metastable liquid | 78.47 mN/m
252.86 K, Metastable liquid | 78.51 mN/m and 78.48 mN/m and 78.47 mN/m
252.88 K, Metastable liquid | 78.38 mN/m and 78.4 mN/m and 78.41 mN/m
253.36 K, Metastable liquid | 78.37 mN/m and 78.4 mN/m
253.79 K, Metastable liquid | 78.34 mN/m
253.81 K, Metastable liquid | 78.27 mN/m
254.9 K, Metastable liquid | 78.3 mN/m
254.91 K, Metastable liquid | 78.28 mN/m
255.29 K, Metastable liquid | 78.03 mN/m
255.32 K, Metastable liquid | 78.13 mN/m
255.33 K, Metastable liquid | 78.15 mN/m
255.34 K, Metastable liquid | 78.07 mN/m [middle of 4 runs]
255.84 K, Metastable liquid | 78.05 mN/m and 78.06 mN/m
255.85 K, Metastable liquid | 78.07 mN/m
256.33 K, Metastable liquid | 77.91 mN/m
256.34 K, Metastable liquid | 77.97 mN/m
256.87 K, Metastable liquid | 77.86 mN/m and 77.87 mN/m
257.83 K, Metastable liquid | 77.72 mN/m
257.84 K, Metastable liquid | 77.75 mN/m
257.87 K, Metastable liquid | 77.94 mN/m
257.88 K, Metastable liquid | 77.92 mN/m
258.8 K, Metastable liquid | 77.63 mN/m
258.81 K, Metastable liquid | 77.61 mN/m
259.3 K, Metastable liquid | 77.59 mN/m and 77.6 mN/m
259.8 K, Metastable liquid | 77.54 mN/m and 77.5 mN/m
260.83 K, Metastable liquid | 77.35 mN/m
260.84 K, Metastable liquid | 77.36 mN/m
261.8 K, Metastable liquid | 77.24 mN/m
261.81 K, Metastable liquid | 77.2 mN/m
262.27 K, Metastable liquid | 77.23 mN/m
262.28 K, Metastable liquid | 77.21 mN/m
262.82 K, Metastable liquid | 77.04 mN/m and 77.06 mN/m
262.83 K, Metastable liquid | 77.07 mN/m
263.26 K, Metastable liquid | 77 mN/m
263.27 K, Metastable liquid | 77.01 mN/m
263.76 K, Metastable liquid | 76.93 mN/m
263.77 K, Metastable liquid | 76.91 mN/m and 76.87 mN/m
265.74 K, Metastable liquid | 76.71 mN/m
265.75 K, Metastable liquid | 76.75 mN/m
265.76 K, Metastable liquid | 76.61 mN/m and 76.68 mN/m and 76.64 mN/m
265.77 K, Metastable liquid | 76.6 mN/m
265.78 K, Metastable liquid | 76.61 mN/m
266.23 K, Metastable liquid | 76.6 mN/m and 76.58 mN/m
266.74 K, Metastable liquid | 76.55 mN/m and 76.54 mN/m
268.21 K, Metastable liquid | 76.34 mN/m and 76.3 mN/m
268.7 K, Metastable liquid | 76.22 mN/m
269.18 K, Metastable liquid | 76.23 mN/m
269.19 K, Metastable liquid | 76.24 mN/m
269.36 K, Metastable liquid | 76.19 mN/m
269.69 K, Metastable liquid | 76.1 mN/m
270.17 K, Metastable liquid | 76.05 mN/m
270.65 K, Metastable liquid | 76.02 mN/m
270.67 K, Metastable liquid | 76.02 mN/m
272.68 K, Metastable liquid | 75.72 mN/m
272.69 K, Metastable liquid | 75.75 mN/m
273.56 K, Metastable liquid | 75.62 mN/m
273.61 K, Metastable liquid | 75.56 mN/m
273.64 K, Metastable liquid | 75.58 mN/m
273.69 K, Metastable liquid | 75.61 mN/m and 75.64 mN/m
275.62 K, Liquid | 75.24 mN/m
275.63 K, Liquid | 75.28 mN/m and 75.24 mN/m
276.61 K, Liquid | 75.19 mN/m
276.63 K, Liquid | 75.19 mN/m and 75.16 mN/m
278.09 K, Liquid | 74.96 mN/m
278.11 K, Liquid | 74.98 mN/m
279.56 K, Liquid | 74.68 mN/m
279.58 K, Liquid | 74.74 mN/m
280.58 K, Liquid | 74.59 mN/m
280.59 K, Liquid | 74.56 mN/m and 74.58 mN/m
281.55 K, Liquid | 74.41 mN/m
282.06 K, Liquid | 74.39 mN/m and 74.37 mN/m
283.5 K, Liquid | 74.17 mN/m
283.59 K, Liquid | 74.17 mN/m
283.6 K, Liquid | 74.15 mN/m
283.67 K, Liquid | 74.15 mN/m
284.61 K, Liquid | 74.14 mN/m
284.62 K, Liquid | 74.11 mN/m
292 K, Liquid | 72.91 mN/m and 72.88 mN/m
293.63 K, Liquid | 72.7 mN/m and 72.67 mN/m
293.66 K, Liquid | 72.67 mN/m and 72.7 mN/m
295.63 K, Liquid | 72.36 mN/m
295.65 K, Liquid | 72.33 mN/m

From the NIST ThermoML archive (doi:10.1021/acs.jced.7b00519)
